From patent US8710058B2, “Polymorphic forms of 3-(1-{3-[5-(1-methyl-piperidin-4-ylmethoxy)-pyrimidin-2-yl]-benzyl}-6-oxo-1,6-dihydro-pyridazin-3-yl)-benzonitrile hydrochloride salt and processes of manufacturing thereof” (MERCK PATENT GmbH, priority 2009, dated 2014)
“Also recorded” adds a separate entry of the source. Read-outs that look alike come from different tables or passages of the source.

Legend:
[1] = Kinetic solubility (after 60 minutes) in 0.1 N HCl; settings: 0.1 N HCl (pH 1.0); for Kinetic Solubility (after 60 minutes): room temperature (approx. 20-25° C.)
[2] = Water Vapor Sorption isotherm (25° C., SMS DVS); format: physicochemical; settings: for Hygroscopicity classification acc. to Ph. Eur. criteria: up to 98% RH
Excerpt: The crystalline modifications of the present invention can be characterized according to standard methods which can be found e.g. in Rolf Hilfiker, ‘Polymorphism in the Pharmaceutical Industry’, Wiley-VCH, Weinheim 2006, and references therein, e.g. X-Ray diffraction (XRD; chapter 6), IR and Raman spectroscopy (chapter 5), Differential Scanning calorimetry (DSC) and Thermogravimetric Analysis (TGA) (chapter 3), Water Vapour Sorption Studies (chapter 9), or which can be found e.g. in H. G. Brittain (editor), Polymorphism in Pharmaceutical Solids, Vol. 95, Marcel Dekker Inc., New York 1999 (chapter 6: all there mentioned techniques).
FIG. 6 depicts the Water Vapour Sorption Isotherm (25° C.) (SMS DVS 1) of crystalline modification A1 of 3-(1-{3-[5-(1-methyl-piperidin-4-ylmethoxy)-pyrimidin-2-yl]-benzyl}-6-oxo-1,6-dihydro-pyridazin-3-yl)-benzonitrile hydrochloride anhydrate.
FIG. 12 depicts the Water Vapour Sorption Isotherm (25° C.) (SMS DVS Intrinsic) of crystalline modification H1 of 3-(1-{3-[5-(1-methyl-piperidin-4-ylmethoxy)-pyrimidin-2-yl]-benzyl}-6-oxo-1,6-dihydro-pyridazin-3-yl)-benzonitrile hydrochloride hydrate.
FIG. 18 depicts the Water Vapour Sorption Isotherm (25° C.) (SMS DVS Advantage) of crystalline modification NF3 of 3-(1-{3-[5-(1-methyl-piperidin-4-ylmethoxy)-pyrimidin-2-yl]-benzyl}-6-oxo-1,6-dihydro-pyridazin-3-yl)-benzonitrile hydrochloride hydrate.
FIG. 25 depicts the Water Vapour Sorption Isotherm (25° C.) (SMS DVS Intrinsic) of crystalline modification H2 of 3-(1-{3-[5-(1-methyl-piperidin-4-ylmethoxy)-pyrimidin-2-yl]-benzyl}-6-oxo-1,6-dihydro-pyridazin-3-yl)-benzonitrile hydrochloride monohydrate.
FIG. 33 depicts the Water Vapour Sorption Isotherm (25° C.) (SMS DVS Intrinsic) of crystalline modification NF6 of 3-(1-{3-[5-(1-methyl-piperidin-4-ylmethoxy)-pyrimidin-2-yl]-benzyl}-6-oxo-1,6-dihydro-pyridazin-3-yl)-benzonitrile hydrochloride anhydrate.
FIG. 38 depicts the Water Vapour Sorption Isotherm (25° C.) (SMS DVS Intrinsic) of crystalline modification NF2 of 3-(1-{3-[5-(1-methyl-piperidin-4-ylmethoxy)-pyrimidin-2-yl]-benzyl}-6-oxo-1,6-dihydro-pyridazin-3-yl)-benzonitrile hydrochloride hydrate.

[3] = Thermodynamic solubility in 0.1 N HCl at 37° C.; settings: 0.1 N HCl (pH 1.0); for Thermodynamic Solubility: 37° C.
[4] = pH 1
[5] = Solubility in Simulated Gastric Fluid (acc. to USP); settings: 20 °C, thermodynamic from solid
[6] = Competitive binary slurry conversion experiments (thermodynamic stability of hydrate forms); settings: different solvents at 25° C. and 50° C.

## CN1CCC(COc2cnc(-c3cccc(Cn4nc(-c5cccc(C#N)c5)ccc4=O)c3)nc2)CC1.Cl.O [crystalline modification H1, 3-(1-{3-[5-(1-methyl-piperidin-4-ylmethoxy)-pyrimidin-2-yl]-benzyl}-6-oxo-1,6-dihydro-pyridazin-3-yl)-benzonitrile hydrochloride hydrate]
[1]; hydrochloride hydrate
  Kinetic Solubility (after 60 minutes): approx. 3 μg/mL
[1]; kinetic solubility
  Solubility compared to crystalline modification H2: significantly increased solubility
[2]; at 80% RH
  Water uptake level: > 15 wt %
[2]; relative humidity levels >70%
  Hygroscopic behaviour: strongly hygroscopic

## CN1CCC(COc2cnc(-c3cccc(Cn4nc(-c5cccc(C#N)c5)ccc4=O)c3)nc2)CC1.Cl.O [crystalline modification NF2, 3-(1-{3-[5-(1-methyl-piperidin-4-ylmethoxy)-pyrimidin-2-yl]-benzyl}-6-oxo-1,6-dihydro-pyridazin-3-yl)-benzonitrile hydrochloride hydrate]
[2]; initial 40% RH sorption stage
  Weight loss in water vapor sorption: ~10 wt %

## CN1CCC(COc2cnc(-c3cccc(Cn4nc(-c5cccc(C#N)c5)ccc4=O)c3)nc2)CC1.Cl.O [crystalline modification NF3, 3-(1-{3-[5-(1-methyl-piperidin-4-ylmethoxy)-pyrimidin-2-yl]-benzyl}-6-oxo-1,6-dihydro-pyridazin-3-yl)-benzonitrile hydrochloride hydrate]
[3]; hydrochloride hydrate
  Thermodynamic Solubility: approx. 70 μg/mL
[3]; thermodynamic solubility
  Solubility compared to crystalline modification H2: significantly increased solubility
[2]; at 98% relative humidity
  Water uptake level: approx. 9 wt %
[2]; hydrochloride hydrate
  Behaviour of hydrate water under dry RH conditions: dehydration of hydrate water occurs
  Hygroscopicity classification acc. to Ph. Eur. criteria: slightly-hygroscopic

## CN1CCC(COc2cnc(-c3cccc(Cn4nc(-c5cccc(C#N)c5)ccc4=O)c3)nc2)CC1.Cl [crystalline modification A1, 3-(1-{3-[5-(1-methyl-piperidin-4-ylmethoxy)-pyrimidin-2-yl]-benzyl}-6-oxo-1,6-dihydro-pyridazin-3-yl)-benzonitrile hydrochloride anhydrate]
[2]; at 98% RH
  Hygroscopic behavior: strongly hygroscopic
[2]; at 98% relative humidity
  Water uptake level: > 15 wt %
[2]; range 0-90% relative humidity
  Water uptake upon adsorption: very small water uptake levels

## CN1CCC(COc2cnc(-c3cccc(Cn4nc(-c5cccc(C#N)c5)ccc4=O)c3)nc2)CC1.Cl [crystalline modification NF6, 3-(1-{3-[5-(1-methyl-piperidin-4-ylmethoxy)-pyrimidin-2-yl]-benzyl}-6-oxo-1,6-dihydro-pyridazin-3-yl)-benzonitrile hydrochloride anhydrate]
[2]; 2nd adsorption cycle, up to 70% RH
  Water uptake: approx. 8 wt %
[2]; initial sorption stage at 40% relative humidity
  Water uptake in initial sorption stage: pronounced water uptake
[4]
  Thermodynamic Solubility: > 200 µg/mL

## CN1CCC(COc2cnc(-c3cccc(Cn4nc(-c5cccc(C#N)c5)ccc4=O)c3)nc2)CC1.Cl.O [crystalline modification H2, 3-(1-{3-[5-(1-methyl-piperidin-4-ylmethoxy)-pyrimidin-2-yl]-benzyl}-6-oxo-1,6-dihydro-pyridazin-3-yl)-benzonitrile hydrochloride monohydrate]
[3]; hydrochloride monohydrate
  Thermodynamic Solubility: approx. 28 μg/mL
[1]; hydrochloride monohydrate
  Kinetic Solubility (after 60 minutes): approx. 0.3 μg/mL
[2]; hydrochloride monohydrate
  Behaviour of hydrate water under dry RH conditions: no loss of hydrate water
  Hygroscopicity classification acc. to Ph. Eur. criteria: non-hygroscopic
[2]; up to 98% relative humidity (RH range 0-98%), hydrochloride monohydrate
  Water uptake: small water uptake levels; also recorded: very small water uptake levels
[5]
  solubility: ~20 µg/mL
[6]
  Thermodynamic stability compared to other hydrate forms H1 and NF3: thermodynamically stable hydrate form
